One data set deals with PC-3 cells. The experiment in a line: CCK-8 in vitro cytotoxicity assay, PC-3. It counts as cell-based. The conditions noted are these: human prostate cancer cell line PC-3, CCK-8, 24 h exposure, mean ± SD of three experiments. As for the experimental part: (§1) The synthesized target compounds 5 to 29 were evaluated for their in vitro cytotoxic activities against the three human prostate cancer cell lines (PC-3, LNCaP, and DU145), and compared with their effects on human prostate epithelial cell line RWPE-1 by CCK-8 assay.
(§2) PC-3 and RWPE-1 cells were cultured in Dulbecco’s modification Eagle’s medium (DMEM, Invitrogen, Carlsbad, CA, USA) supplemented with 10% fetal bovine serum (FBS, Hyclone, Logan, UT, USA), 100 U/mL penicillin and 0.1 mg/mL streptomycin (Invitrogen). DU145 cells were cultured in RPMI1640 media supplemented with 10% fetal bovine serum (FBS, Hyclone), 100 U/mL penicillin and 0.1 mg/mL streptomycin (Invitrogen). LNCaP cells were cultured in F12 media supplemented with 10% fetal bovine serum (FBS, Hyclone), 100 U/mL penicillin and 0.1 mg/mL streptomycin (Invitrogen). The cells were incubated at 37 °C in a humidified atmosphere with 5% CO2.
(§3) Cell proliferation was measured with the Cell Counting Kit-8 (CCK-8) assay kit (Dojindo Corp., Kumamoto, Japan). Cells were harvested during logarithmic growth phase and seeded in 96-well plates at a density of 1 × 10^5 cells/mL, and cultured at 37 °C in a humidified incubator (5% CO2) for 24 h, followed by exposure to various concentrations of compounds tested for 24 h. Subsequently 10 μL of CCK-8 (Dojindo) was added to each well, the cells were then incubated for an additional 1 h at 37 °C to convert WST-8 into formazan. Cell growth inhibition was determined by measuring the absorbance (Abs) at λ = 450 nm using amicroplate reader. Three independent experiments were performed. Cell growth inhibition was calculated according to the following equation: Growth inhibition = (1 − OD of treated cells/OD of control cells) × 100%
(§4) The half maximal inhibitory concentrations (IC50) were obtained from linear regression analysis of the concentration-response curves plotted for each tested compound.

For the next data set, the system named is LNCaP cells. The experiment in a line: CCK-8 in vitro cytotoxicity assay, LNCaP. It counts as cell-based. The following applies: Homo sapiens, LNCaP, 24 h, human prostate cancer cell line LNCaP, CCK-8, 24 h exposure, mean ± SD of three experiments. As for the experimental part: as §1, §2, §3, §4
The test system of the next data set is DU145 cells. The experiment in a line: CCK-8 in vitro cytotoxicity assay, DU145. It is filed as cell-based. The following applies: DU-145; human prostate cancer cell line DU145, CCK-8, 24 h exposure, mean ± SD of three experiments. As for the experimental part: as §1, §2, §3, §4
Another data set relates to RWPE-1 cells. The experiment in a line: CCK-8 in vitro cytotoxicity assay, RWPE-1 normal prostate epithelial cells. It counts as cell-based. The conditions noted are these: human prostate epithelial cell line RWPE-1 (normal), CCK-8, 24 h exposure, mean ± SD of three experiments. As for the experimental part:
as §1, §2, §3, §4

Counter-ions that a name gives are not always drawn. Where only a bound is given, the exact number is not on record here.

As usually defined, the melting point is the temperature of the solid-liquid transition. As to `OC1(c2ccccc2)CCN(CCc2ccc(COc3ccc4c(c3)OCO4)cc2)CC1` (as salt: HCl) [Compound 29, 1-(2-(4-((Benzo[d][1,3]dioxol-5-yloxy)methyl)phenyl)ethyl)-4-phenylpiperidin-4-ol], the melting point fell in the range of 194 to 195 °C.

The molecule `COc1ccc(N2CCN(CCc3ccc(COc4ccc5c(c4)OCO5)cc3)CC2)cc1` (as salt: HCl) [Compound 13, 1-(2-(4-((Benzo[d][1,3]dioxol-5-yloxy)methyl)phenyl)ethyl)-4-(4-methoxyphenyl)piperazine] yielded a melting point of 174 to 175 °C.

Molecule `Cc1ccc(N2CCN(CCc3ccc(COc4ccc5c(c4)OCO5)cc3)CC2)cc1` (as salt: HCl) [Compound 10, 1-(2-(4-((Benzo[d][1,3]dioxol-5-yloxy)methyl)phenyl)ethyl)-4-p-tolylpiperazine] came in with a melting point of 184 to 185 °C.

For `c1ccc(N2CCN(CCc3ccc(COc4ccc5c(c4)OCO5)cc3)CC2)nc1` (as salt: HCl) [Compound 7, 1-(2-(4-((Benzo[d][1,3]dioxol-5-yloxy)methyl)phenyl)ethyl)-4-(pyridin-2-yl)piperazine], the melting point was 185 to 186 °C.

For the molecule `FC(F)(F)c1ccc(N2CCN(CCc3ccc(COc4ccc5c(c4)OCO5)cc3)CC2)cc1` (as salt: HCl) [Compound 26, 1-(2-(4-((Benzo[d][1,3]dioxol-5-yloxy)methyl)phenyl)ethyl)-4-(4-(trifluoromethyl)phenyl)piperazine], the melting point lay within 176 to 177 °C.

As for `Cc1ccccc1N1CCN(CCc2ccc(COc3ccc4c(c3)OCO4)cc2)CC1` (as salt: HCl) [Compound 9, 1-(2-(4-((Benzo[d][1,3]dioxol-5-yloxy)methyl)phenyl)ethyl)-4-o-tolylpiperazine], the melting point lay in the range of 202 to 203 °C.

With `c1ccc(C2CCN(CCc3ccc(COc4ccc5c(c4)OCO5)cc3)CC2)cc1` (as salt: HCl) [Compound 28, 1-(2-(4-((Benzo[d][1,3]dioxol-5-yloxy)methyl)phenyl)ethyl)-4-phenylpiperidine], the melting point was in the range of 183 to 184 °C.

Molecule `c1ccc(N2CCN(CCc3ccc(COc4ccc5c(c4)OCO5)cc3)CC2)cc1` (as salt: HCl) [Compound 5, 1-(2-(4-((Benzo[d][1,3]dioxol-5-yloxy)methyl)phenyl)ethyl)-4-phenylpiperazine] registered a melting point of 195 to 196 °C.

One may read the IC50 as the concentration at which inhibition is half-maximal. On to `COc1ccccc1N1CCN(CCc2ccc(COc3ccc4c(c3)OCO4)cc2)CC1` [Compound 12, 1-(2-(4-((Benzo[d][1,3]dioxol-5-yloxy)methyl)phenyl)ethyl)-4-(2-methoxyphenyl)piperazine], for which the IC50 with PC-3 cells is above 50 µM; in the data set with LNCaP cells, 30.7 ± 0.83 µM; in the data set with DU145 cells, above 50 µM; in the data set on RWPE-1 cells, above 50 µM.

Regarding `c1ccc(CN2CCN(CCc3ccc(COc4ccc5c(c4)OCO5)cc3)CC2)cc1` [Compound 6, 1-(2-(4-((Benzo[d][1,3]dioxol-5-yloxy)methyl)phenyl)ethyl)-4-benzylpiperazine], the IC50 is above 50 µM in the data set on PC-3 cells, 27.7 ± 4.17 µM in the data set with LNCaP cells, 28.9 ± 0.98 µM in the data set on DU145 cells and 38.8 ± 0.77 µM in the data set with RWPE-1 cells.

On to `FC(F)(F)c1ccc(N2CCN(CCc3ccc(COc4ccc5c(c4)OCO5)cc3)CC2)cc1` [Compound 26, 1-(2-(4-((Benzo[d][1,3]dioxol-5-yloxy)methyl)phenyl)ethyl)-4-(4-(trifluoromethyl)phenyl)piperazine], for which the IC50 with PC-3 cells was above 50 µM; in the data set on LNCaP cells, 26.8 ± 1.51 µM; in the data set on DU145 cells it was above 50 µM; in the data set on RWPE-1 cells, above 50 µM.

With `Clc1cccc(N2CCN(CCc3ccc(COc4ccc5c(c4)OCO5)cc3)CC2)c1` [Compound 21, 1-(2-(4-((Benzo[d][1,3]dioxol-5-yloxy)methyl)phenyl)ethyl)-4-(3-chlorophenyl)piperazine], the IC50 is above 50 µM in the data set on PC-3 cells, 25.3 ± 1.55 µM in the data set with LNCaP cells, above 50 µM in the data set with DU145 cells and above 50 µM in the data set on RWPE-1 cells.

The record behind these values is paper PMC6271825, “Synthesis and Cytotoxic Activity Evaluation of Novel Arylpiperazine Derivatives on Human Prostate Cancer Cell Lines” (Molecules, 2014).
